Source: patent publication US8580512B2, “Yeast-based methods of identifying nucleic acids and compounds for treating neurodegenerative diseases” (University of Alabama, priority 2008, dated 2013)

What was measured:
S. pombe cells [1] = assay: Reversal of rotenone-induced proliferation inhibition; type: cell-based, Schizosaccharomyces pombe
Protocol: Phosphatidylethanolamine (PE) deficiency results in a rotenone-sensitive phenotype that can be suppressed by ethanolamine. Log phase cultures were suspended at 10^7 cells/ml, serially diluted (1:10), and spotted (5 μl per spot) onto YES (Control) or YES containing 16 μM rotenone (+Rotenone).
Oxidative stress has been detected in the brains of deceased Parkinson's disease patients, and in rats exposed to rotenone as a model for Parkinson's disease.

S. pombe cells [2] = assay: Rotenone sensitivity assay (serial dilution spot growth on agar media); type: cell-based, Schizosaccharomyces pombe; conditions: for sensitivity of growth to rotenone: 16 μM rotenone; for sensitivity of growth to rotenone relative to wild type: rotenone 6.4 μg/ml; for inhibition of S. pombe growth: wild type
Protocol: Yeast strains, media, and genetic methods. The following S. pombe strains were used in this study: SP870 (h90 ade6-210 leu1-32 ura4-D18), SPSPC1 U90 (h90 ade6-210 leu1-32 ura4-D18 spc1::ura4), SPM1L (h90 leu1-32 ura4-D18 spm1::LEU2). S. pombe cultures were grown in either YES medium (0.5% yeast extract; 3% dextrose; and adenine, histidine, leucine, lysine and uracil, each at 250 mg/L) or Edinburgh minimal medium (EMM) containing required auxotrophic supplements (Alfa et al., (1993) Experiments with fission yeast: A laboratory course manual, Cold Spring Harbor Laboratory Press, Cold Spring Harbor, N.Y., incorporated herein by reference in its entirety). Agar media contained 2% Bacto agar (Difco).
Rotenone sensitivity assay. Rotenone stock solutions (10 mM in DMSO) were prepared just prior to carrying out each experiment and protected from light. Rotenone containing YES and EMM agar media were prepared by mixing rotenone stock solution with growth medium as required for the desired rotenone concentration (up to 6.4 μg/ml). For agar media, rotenone stock solution was added after autoclaving and cooling of the media to approximately 45° C. DMSO was added to control media at concentrations equivalent to that in media supplemented with rotenone. Plates were incubated at room temperature for 3-12 hr prior to use. S. pombe strains were cultured overnight in YES liquid medium at 30° C. to mid-log phase, concentrated to 5×10^6 cells/ml, and serially diluted (1:5). Three μl of each dilution was spotted onto rotenone containing plates and control plates and the plates were incubated at 30° C. for 2-4 days, as indicated in relevant figure legends.
Effects of rotenone on S. pombe cell growth in nutrient-enriched and nutrient-limited conditions. To investigate the effects of rotenone on S. pombe cell growth, we prepared complex rich (YES) and synthetic defined minimal (EMM) agar media containing concentrations of rotenone ranging from 0.2 to 6.4 μg/ml. […] Since rotenone has a relatively short half-life in aqueous solutions, growth media containing the toxin were prepared freshly prior to each experiment. Mid-log phase cultures of wild type S. pombe cells were serially diluted and tested for growth on YES and EMM plates containing rotenone and on control media lacking the toxin.
To determine whether spc1Δ and/or pmk1Δ mutants are hypersensitive to rotenone, log phase cultures of the two strains and wild type S. pombe cells were serially diluted and tested for growth on YES medium containing rotenone and on control medium lacking the toxin. […] The reduced sensitivity of spc1Δ cells to rotenone was most evident after incubation of the cultures for two days (FIG. 8A), with the difference after 3 days of growth being apparent from examination of colony sizes at the end of the cell dilution series on the respective plates (FIG. 8B).

S. pombe cells [3] = assay: MitoTracker Green FM staining of mitochondrial localization; type: cell-based, Schizosaccharomyces pombe
Protocol: (§1) MitoTracker Green FM and dihydroethidium (DHE) staining of S. pombe cells. Mitochondrial localization was detected by staining S. pombe cells with MitoTracker Green FM (MTGreen) based on the protocol recommended by the manufacturer (Invitrogen). Briefly, S. pombe cells were cultured overnight in YES liquid medium at 30° C. to mid-log phase. Where indicated, rotenone stock solution was added to portions of each culture to a final concentration of 6.4 μg/ml. Equivalent volumes of DMSO were added to control cultures. Stock solutions of MTGreen (5 μM in DMSO) were prepared just prior to use. Staining was carried out by adding 10 μl of MTGreen stock solution to 1 ml of cell culture and incubating at 30° C. with shaking for 20 min. Stained cells were washed once with YES and resuspended in approximately 10 μl of YES prior to preparation of samples for microscopy. Stained cells were concentrated by centrifugation to a volume of approximately 10 μl. DHE staining was carried out as described by Huard et al., (2008) Cell Res. 18: 961-973, incorporated herein by reference in its entirety. Stained cells were visualized by epifluorescence microscopy using a Nikon 90i automated epifluorescence microscope system operated using Nikon NIS-Elements software. Images were captured using a CoolSNAP HQ2 monochrome CCD camera (Photometrics). RAW images were level-adjusted using the Adobe PhotoShop CS3 software application.
Rotenone induces disruption of mitochondrial localization in S. pombe cells. Similar to some mammalian cells, such as fibroblasts and nerve cells (Barsoum et al., (2006) EMBO J. 25: 3900-3911; Amchenkova et al., (1988) J. Cell. Biol. 107: 481-495), mitochondria in S. pombe are organized into tubular structures (Chiron et al., (2007) Methods Mol. Biol. 372: 91-105), as shown in FIG. 5A. […] Wild type S. pombe cells were cultured to mid-log phase in YES liquid medium were treated with rotenone (6.4 μg/ml) for 4 hr, stained with the fluorescent mitochondrial dye MitoTracker Green FM (MTGreen), and visualized by fluorescence microscopy. […]

S. pombe cells [4] = assay: Dihydroethidium (DHE) staining for ROS; type: cell-based, Schizosaccharomyces pombe; conditions: rotenone 6.4 μg/ml; for ROS levels (DHE): wild type
Protocol: as §1
Rotenone induces generation of ROS in S. pombe cells. Since rotenone induces generation of ROS in mammalian cell cultures and oxidative stress damage in the brains of rats chronically treated with the toxin (Li et al., (2003) J. Biol. Chem. 278: 8516-8525; Greenamyre et al., (2003) Parkinsonism Relat. Disord. 9 (Suppl 2): S59-64), it was determined whether rotenone also induces generation of ROS in S. pombe cells. To do this, wild type S. pombe cells were treated with rotenone and periodically analyzed the treated cells by staining with dihydroethidium (DHE), which is oxidized to ethidium in the presence of ROS (Bindokas et al., (1996) J. Neurosci. 16: 1324-1336).
Pmk1, but not Spc1, is required for normal clearance of rotenone-induced ROS in S. pombe cells. To investigate further the effects of rotenone on spc1Δ and pmk1Δ cells, we treated the two strains and wild type S. pombe cells were treated with rotenone for 12 hrs and stained cells from treated and control cultures with DHE for detection of ROS by fluorescence microscopy.

S. pombe cells [5] = assay: DIC microscopy of cell morphology; type: cell-based, Schizosaccharomyces pombe; conditions: wild type, rotenone 6.4 μg/ml, 4 to 24 hrs
From the text: To determine whether rotenone induces abnormalities in S. pombe cell morphology, rotenone-treated and untreated S. pombe cells were compared by DIC microscopy.

S. pombe cells [6] = conditions: 0.3 μg/ml rotenone, Heslot et al. 1970; cited from earlier work

With `NCCO` [ethanolamine] the “suppression of rotenone-sensitive phenotype” value (S. pombe cells [1]; psd1-3Δ (phosphatidylethanolamine deficient) strain, YES with 16 μM rotenone, 1 mM ethanolamine) was “suppressed”.

In the case of `C=C(C)[C@H]1Cc2c(ccc3c2O[C@@H]2COc4cc(OC)c(OC)cc4[C@@H]2C3=O)O1` [rotenone], the “sensitivity of growth to rotenone” value (S. pombe cells [2]; aks1Δ mutant, complex YES medium) is reported as “strongly hypersensitive”, the “sensitivity of growth to rotenone” value (S. pombe cells [2]; cgs1Δ mutant, complex YES medium) is reported as “does not significantly increase the sensitivity” and the “sensitivity of growth to rotenone” value (S. pombe cells [2]; cgs1Δaks1Δ double mutant, complex YES medium) is reported as “allowing the yeast to proliferate in the presence of rotenone”. The “sensitivity of growth to rotenone” value (S. pombe cells [2]; pka1Δ mutant, complex YES medium) was “strongly hypersensitive”, the “sensitivity of growth to rotenone relative to wild type” value (S. pombe cells [2]; pmk1Δ mutant, YES medium, 3 days) was “profoundly more sensitive” and the “sensitivity of growth to rotenone” value (S. pombe cells [2]; psd1Δ psd2Δ psd3Δ triple deletion, complex medium) was “increased sensitivity”. The “sensitivity of growth to rotenone relative to wild type” value (S. pombe cells [2]; spc1Δ mutant, YES medium, 2-3 days) was “slightly less sensitive”, the “sensitivity of growth to rotenone” value (S. pombe cells [2]; spc1Δ mutant, complex YES medium) was “not hypersensitive” and the “inhibition of S. pombe growth” value (S. pombe cells [2]; EMM minimal medium, 1.6 μg/ml rotenone, 4 days at 30° C.) was “slightly inhibited”. For the same compound, the “inhibition of S. pombe growth” value (S. pombe cells [2]; EMM minimal medium, 6.4 μg/ml rotenone, 4 days at 30° C.) was “strongly inhibited”, the “inhibition of S. pombe growth” value (S. pombe cells [2]; YES medium, 6.4 μg/ml rotenone, 3 days at 30° C.) was “modest inhibition” and the “inhibition of S. pombe growth” value (S. pombe cells [2]; YES medium, rotenone concentrations lower than 6.4 μg/ml (from 0.2 μg/ml)) was “not on YES containing lower concentrations”. The “cells with fragmentation of mitochondrial localization” value (S. pombe cells [3]; pmk1Δ cells, rotenone 6.4 μg/ml, 4 hr) was “approximately 70 % of cells”, the “effect on mitochondrial localization” value (S. pombe cells [3]; spc1Δ cells, rotenone 6.4 μg/ml, 4 hr) was “marginal effect” and the “persistence of fragmented pattern of mitochondrial localization after initial exposure” value (S. pombe cells [3]; wild type, continued culturing in rotenone containing medium, data not shown) was “at least 24 hrs”. For the same compound, the “rotenone-induced ROS levels (DHE) relative to wild type” value (S. pombe cells [4]; pmk1Δ cells, 12 hrs) was “dramatically higher”, the “rotenone-induced ROS levels (DHE)” value (S. pombe cells [4]; spc1Δ cells, 12 hrs) was “only a very slight increase” and the “ROS levels (DHE)” value (S. pombe cells [4]; 6 hrs) was “higher levels of ROS than control cells”. For the same compound, the “ROS levels (DHE)” value (S. pombe cells [4]; 12 hr) was “Higher levels of ROS”, the “defects in S. pombe cell morphology” value (S. pombe cells [5]) was “does not induce obvious defects” and the “effect on S. pombe cell growth” value (S. pombe cells [6]) was “negligible effect”.

For `O=C1O[C@H]([C@@H](O)CO)C(O)=C1O` [ascorbic acid], the “reversal of rotenone-induced proliferation inhibition” value (S. pombe cells [1]; pka1Δ S. pombe cells) was “reversed” and the “reversal of rotenone-induced proliferation inhibition” value (S. pombe cells [1]; wild-type S. pombe cells, nutrient stressed conditions) was “reversed”.
